# Source: PubChem BioAssay AID330 (DTP/NCI, 2004)
# Values joined by “and” are separate entries in the source; they are usually repeats but may differ in a detail not shown here. Identical values can stand only once. Toxic doses and inconclusive results are not listed.
# Tested on: P388 leukemia ip, CD2F1 mice, survival T/C
# Assay: NCI In Vivo Anticancer Drug Screen. Data for tumor model P388 Leukemia (intraperitoneal) in CD2F1 (CDF1) mice
# Settings: endpoint: median survival time, higher = longer survival
# Procedure, shortened: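 Mice carrying the transplanted tumor received test compound or vehicle. Survival was recorded in each group, and the value is the treated-group measurement divided by that of the vehicle-treated control group.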
# [1] = dose: 100.0 mg/kg/injection, schedule: Q01DX009 (ip), vehicle: saline with Tween-80
# [2] = dose: 200.0 mg/kg/injection, schedule: Q01DX009 (ip), vehicle: saline with Tween-80
# [3] = dose: 50.0 mg/kg/injection, schedule: Q01DX005 (ip), vehicle: Klucel (hydroxypropylcellulose) (HPC)
compound,measurement,setting,value
CN(C)CCN1C(=O)CN=C(c2ccccc2Cl)c2cc(Cl)ccc21,T/C,"dose: 60.0 mg/kg/injection, schedule: Q01DX005 (ip), vehicle: saline",102 % of control
same,T/C,"dose: 120.0 mg/kg/injection, schedule: Q01DX005 (ip), vehicle: saline",99 % of control
same,T/C,"dose: 240.0 mg/kg/injection, schedule: Q01DX005 (ip), vehicle: saline",95 % of control
C/C(=N\N=C(N)N)c1ccc(-c2ccccc2)cc1,T/C,"dose: 25.0 mg/kg/injection, schedule: Q04DX002 (ip), vehicle: saline with Tween-80",111 % of control
same,T/C,"dose: 50.0 mg/kg/injection, schedule: Q04DX002 (ip), vehicle: saline with Tween-80",109 % of control
O=C(c1ccccc1)c1ccccc1-c1ccccc1C(=O)c1ccccc1,T/C,"dose: 50.0 mg/kg/injection, schedule: Q01DX009 (ip), vehicle: saline with Tween-80",102 % of control
same,T/C,[1],92 % of control
same,T/C,[2],87 % of control
O=C(CCCc1ccc(N(CCCl)CCCl)cc1)Nc1ncccn1,T/C,"dose: 5.3 mg/kg/injection, schedule: Q01DX009 (ip), vehicle: Klucel (hydroxypropylcellulose) (HPC)",95 % of control
same,T/C,"dose: 8.0 mg/kg/injection, schedule: Q01DX009 (ip), vehicle: Klucel (hydroxypropylcellulose) (HPC)",159 % of control
same,T/C,"dose: 12.0 mg/kg/injection, schedule: Q01DX009 (ip), vehicle: Klucel (hydroxypropylcellulose) (HPC)",150 % of control
same,T/C,"dose: 18.0 mg/kg/injection, schedule: Q01DX009 (ip), vehicle: Klucel (hydroxypropylcellulose) (HPC)",159 % of control
NCCCCC(NC(=O)OCC1c2ccccc2-c2ccccc21)C(=O)O (configuration not stated),T/C,[3],99 % of control
same,T/C,"dose: 100.0 mg/kg/injection, schedule: Q01DX005 (ip), vehicle: Klucel (hydroxypropylcellulose) (HPC)",99 % of control
same,T/C,"dose: 200.0 mg/kg/injection, schedule: Q01DX005 (ip), vehicle: Klucel (hydroxypropylcellulose) (HPC)",109 % of control
C=C(CC1(O)C(C2COC(C)(C)O2)OC2OC(C)(C)OC21)C(=O)OCC (configuration not stated),T/C,"dose: 50.0 mg/kg/injection, schedule: Q01DX005 (ip), vehicle: saline",96 % of control
same,T/C,"dose: 100.0 mg/kg/injection, schedule: Q01DX005 (ip), vehicle: saline",98 % of control
same,T/C,"dose: 200.0 mg/kg/injection, schedule: Q01DX005 (ip), vehicle: saline",105 % of control
CCOC(=O)Cc1cccc(C)n1,T/C,[1],100 % of control
same,T/C,[2],109 % of control
same,T/C,"dose: 400.0 mg/kg/injection, schedule: Q01DX009 (ip), vehicle: saline with Tween-80",104 % of control
CCOc1ccc2nc3cc(N=Nc4cc5ccccc5[nH]4)ccc3c(N)c2c1,T/C,"dose: 100.0 mg/kg/injection, schedule: Q01DX001 (ip), vehicle: saline with Tween-80",97 % of control
same,T/C,"dose: 200.0 mg/kg/injection, schedule: Q01DX001 (ip), vehicle: saline with Tween-80",94 % of control
same,T/C,"dose: 400.0 mg/kg/injection, schedule: Q01DX001 (ip), vehicle: saline with Tween-80",103 % of control
CCOC(=O)c1cc2cc3c4c(c2oc1=O)CCCN4CCC3,T/C,"dose: 12.5 mg/kg/injection, schedule: Q01DX005 (ip), vehicle: Klucel (hydroxypropylcellulose) (HPC)",106 % of control
same,T/C,"dose: 25.0 mg/kg/injection, schedule: Q01DX005 (ip), vehicle: Klucel (hydroxypropylcellulose) (HPC)",110 % of control
same,T/C,[3],107 % of control and 111 % of control
CC(=O)NNC(=S)Nc1ccccc1,T/C,"dose: 50.0 mg/kg/injection, schedule: Q01DX005 (ip), vehicle: saline with Tween-80",100 % of control
same,T/C,"dose: 100.0 mg/kg/injection, schedule: Q01DX005 (ip), vehicle: saline with Tween-80",101 % of control
same,T/C,"dose: 200.0 mg/kg/injection, schedule: Q01DX005 (ip), vehicle: saline with Tween-80",100 % of control
CC1(C)OC(=O)C(=CN(C2CCCCC2)C2CCCCC2)C(=O)O1,T/C,"dose: 60.0 mg/kg/injection, schedule: Q01DX005 (ip), vehicle: Klucel (hydroxypropylcellulose) (HPC)",96 % of control
same,T/C,"dose: 120.0 mg/kg/injection, schedule: Q01DX005 (ip), vehicle: Klucel (hydroxypropylcellulose) (HPC)",86 % of control
c1cc(C2CO2)ccc1Oc1ccc(C2CO2)cc1 (configuration not stated),T/C,"dose: 50.0 mg/kg/injection, schedule: Q01DX009 (ip), vehicle: Klucel (hydroxypropylcellulose) (HPC)",103 % of control
same,T/C,"dose: 100.0 mg/kg/injection, schedule: Q01DX009 (ip), vehicle: Klucel (hydroxypropylcellulose) (HPC)",88 % of control
same,T/C,"dose: 200.0 mg/kg/injection, schedule: Q01DX009 (ip), vehicle: Klucel (hydroxypropylcellulose) (HPC)",93 % of control
Cc1ccc(-c2c(C)c3c(c(C)c2-c2ccc(C)cc2)-c2ccccc2C3=O)cc1,T/C,"dose: 100.0 mg/kg/injection, schedule: Q04DX002 (ip), vehicle: saline",100 % of control
same,T/C,"dose: 200.0 mg/kg/injection, schedule: Q04DX002 (ip), vehicle: saline",95 % of control
NC(C/[N+]([O-])=N/O)C(=O)O (configuration not stated),T/C,"dose: 8.78 mg/kg/injection, schedule: Q01DX010 (ip), vehicle: alkali diluted with saline",119 % of control
same,T/C,"dose: 9.38 mg/kg/injection, schedule: Q01DX009 (ip), vehicle: alkali diluted with saline",120 % of control
same,T/C,"dose: 13.2 mg/kg/injection, schedule: Q01DX010 (ip), vehicle: alkali diluted with saline",124 % of control
same,T/C,"dose: 15.6 mg/kg/injection, schedule: Q01DX005 (ip), vehicle: saline with Tween-80",124 % of control
same,T/C,"dose: 15.6 mg/kg/injection, schedule: Q01DX005 (iv), vehicle: saline with Tween-80",107 % of control
same,T/C,"dose: 27.0 mg/kg/injection, schedule: Q01DX009 (ip), vehicle: alkali diluted with saline",161 % of control
same,T/C,"dose: 30.0 mg/kg/injection, schedule: Q01DX005 (ip), vehicle: alkali diluted with saline",161 % of control
same,T/C,"dose: 31.3 mg/kg/injection, schedule: Q01DX005 (iv), vehicle: saline with Tween-80",103 % of control
same,T/C,"dose: 37.5 mg/kg/injection, schedule: Q01DX009 (ip), vehicle: alkali diluted with saline",161 % of control and 162 % of control
same,T/C,"dose: 40.0 mg/kg/injection, schedule: Q01DX005 (ip), vehicle: alkali diluted with saline",150 % of control
same,T/C,"dose: 40.0 mg/kg/injection, schedule: Q01DX009 (ip), vehicle: alkali diluted with saline",165 % of control
same,T/C,"dose: 45.0 mg/kg/injection, schedule: Q01DX009 (ip), vehicle: alkali diluted with saline",152 % of control and 166 % of control
same,T/C,"dose: 60.0 mg/kg/injection, schedule: Q01DX005 (ip), vehicle: alkali diluted with saline",185 % of control
same,T/C,"dose: 62.5 mg/kg/injection, schedule: Q01DX005 (iv), vehicle: saline with Tween-80",111 % of control
same,T/C,"dose: 62.5 mg/kg/injection, schedule: Q01DX009 (ip), vehicle: saline",150 % of control
same,T/C,"dose: 62.5 mg/kg/injection, schedule: Q01DX009 (ip), vehicle: water",163 % of control
same,T/C,"dose: 66.7 mg/kg/injection, schedule: Q01DX009 (ip), vehicle: alkali diluted with saline",107 % of control
same,T/C,"dose: 75.0 mg/kg/injection, schedule: Q01DX009 (ip), vehicle: alkali diluted with water",166 % of control
same,T/C,"dose: 80.0 mg/kg/injection, schedule: Q01DX005 (ip), vehicle: alkali diluted with saline",182 % of control
same,T/C,"dose: 80.0 mg/kg/injection, schedule: Q01DX009 (ip), vehicle: alkali diluted with saline",99 % of control
same,T/C,"dose: 100.0 mg/kg/injection, schedule: Q01DX010 (ip), vehicle: alkali diluted with saline",92 % of control
same,T/C,"dose: 108.0 mg/kg/injection, schedule: Q04DX003 (ip), vehicle: alkali diluted with saline",161 % of control
same,T/C,"dose: 112.5 mg/kg/injection, schedule: Q04DX003 (ip), vehicle: alkali diluted with saline",150 % of control
same,T/C,"dose: 120.0 mg/kg/injection, schedule: Q01DX005 (ip), vehicle: alkali diluted with saline",70 % of control
same,T/C,"dose: 125.0 mg/kg/injection, schedule: Q01DX005 (ip), vehicle: saline with Tween-80",157 % of control
same,T/C,"dose: 125.0 mg/kg/injection, schedule: Q01DX005 (iv), vehicle: saline with Tween-80",107 % of control
same,T/C,"dose: 125.0 mg/kg/injection, schedule: Q01DX009 (ip), vehicle: alkali diluted with saline",66 % of control and 86 % of control
same,T/C,"dose: 125.0 mg/kg/injection, schedule: Q01DX009 (ip), vehicle: saline",154 % of control
same,T/C,"dose: 150.0 mg/kg/injection, schedule: Q01DX009 (ip), vehicle: alkali diluted with water",96 % of control
same,T/C,"dose: 180.0 mg/kg/injection, schedule: Q04DX003 (ip), vehicle: alkali diluted with saline",166 % of control
same,T/C,"dose: 200.0 mg/kg/injection, schedule: Q04DX003 (ip), vehicle: alkali diluted with water",155 % of control
same,T/C,"dose: 225.0 mg/kg/injection, schedule: Q04DX003 (ip), vehicle: alkali diluted with saline",178 % of control
same,T/C,"dose: 300.0 mg/kg/injection, schedule: Q04DX003 (ip), vehicle: alkali diluted with saline",175 % of control
same,T/C,"dose: 450.0 mg/kg/injection, schedule: Q04DX003 (ip), vehicle: alkali diluted with saline",115 % of control
same,T/C,"dose: 500.0 mg/kg/injection, schedule: Q04DX003 (ip), vehicle: alkali diluted with saline",198 % of control
